Test [1] can be described thus: Cytotoxicity against human SMMC7721 cells assessed as reduction in cell viability after 72 hrs by MTT assay. To be noted: SMMC-7721, 72 h. It is filed as functional, cell-based. (Formazan colour is commonly taken as a measure of viable cells.)
Test [2] is described as follows: Cytotoxicity against human MGC803 cells assessed as reduction in cell viability after 72 hrs by MTT assay. It is filed as functional, cell-based. To be noted: MGC-803, 72 h.
For test [3], the system named is MCF7. As to the kind of experiment: Cytotoxicity against human MCF7 cells assessed as reduction in cell viability after 72 hrs by MTT assay. The test is classed as functional, cell-based. To be noted: MCF7, 72 h.
Test [4] in a line: Cytotoxicity against human EC109 cells assessed as reduction in cell viability after 72 hrs by MTT assay. It is filed as functional, cell-based. To be noted: ECa-109, 72 h.
Test [5] in a line: Antitumor activity against human MGC803 cells xenografted in nude mouse assessed as reduction in tumor weight at 30 mg/kg, po qd for 28 days relative to control. The test is classed as functional, MGC-803. Also on record: scale not given: the % may be the effect or the level left. A general note: A xenograft is tissue or cells of one species grown in another, often human tumour cells in immunodeficient mice.

For 24 compounds, IC50 and Activity results are on record in ChEMBL document CHEMBL3751767, “Synthesis, in vitro and in vivo anticancer activities of novel 4-substituted 1,2-bis(4-chlorophenyl)-pyrazolidine-3,5-dione derivatives” (Medchemcomm, 2015).

SMILES strings stand for the structures.

For orientation: IC50 means the concentration that gives 50% inhibition.

Take `COc1ccc(C=C2C(=O)N(c3ccc(Cl)cc3)N(c3ccc(Cl)cc3)C2=O)cc1OC`: the IC50 in test [1], in test [2], in test [3] and in test [4] was over 128 µM throughout.

Consider `COc1cccc(C=C2C(=O)N(c3ccc(Cl)cc3)N(c3ccc(Cl)cc3)C2=O)c1`, for which the IC50 amounted to 30.2 µM in test [1], 26.6 µM in test [2], 18.1 µM in test [3] and 29 µM in test [4].

As for `CC(=C1C(=O)N(c2ccc(Cl)cc2)N(c2ccc(Cl)cc2)C1=O)c1ccc(O)cc1`, the IC50 in test [1] came out at 57 µM; in test [2], 42.8 µM; in test [3] it was 76.5 µM; in test [4], 55.6 µM.

As for `O=C1C(=Cc2ccco2)C(=O)N(c2ccc(Cl)cc2)N1c1ccc(Cl)cc1`, the IC50 in test [1] came to 19.5 µM; in test [2] it was 12.8 µM; in test [3], 20.3 µM; in test [4], 14.3 µM.

Turning to `CC(C)=C1C(=O)N(c2ccc(Cl)cc2)N(c2ccc(Cl)cc2)C1=O`, the IC50 in test [1] stood at 45.6 µM; in test [2], 39 µM; in test [3] it was 39.6 µM; in test [4] it was 42.1 µM.

Turning to `COc1ccc(C=C2C(=O)N(c3ccc(Cl)cc3)N(c3ccc(Cl)cc3)C2=O)cc1`, the IC50 in test [1], in test [2], in test [3] and in test [4] was over 128 µM throughout.

Regarding `CCCCCOC(=O)Nc1nc(=O)n([C@@H]2O[C@H](C)[C@@H](O)[C@H]2O)cc1F` [CAPECITABINE], in test [5], the Activity is 62.7%.

Regarding `O=C1C(=Cc2ccc(F)c(F)c2)C(=O)N(c2ccc(Cl)cc2)N1c1ccc(Cl)cc1`, the IC50 came to 35.8 µM in test [1], 35.7 µM in test [2], 22 µM in test [3] and 13.1 µM in test [4].

In the case of `COc1cccc(C=C2C(=O)N(c3ccc(Cl)cc3)N(c3ccc(Cl)cc3)C2=O)c1O`, the IC50 in test [1] was 64.9 µM; in test [2], 24.3 µM; in test [3] it was 26.7 µM; in test [4] it was 39 µM.

Take `O=C1C(=Cc2ccccc2)C(=O)N(c2ccc(Cl)cc2)N1c1ccc(Cl)cc1`: the IC50 in test [1] was found to be 26.2 µM; in test [2], 27.2 µM; in test [3], 20.2 µM; in test [4], 32.7 µM.

Consider `COc1ccccc1C=C1C(=O)N(c2ccc(Cl)cc2)N(c2ccc(Cl)cc2)C1=O`, for which the IC50 was found to be 25.8 µM in test [1], 28.6 µM in test [2], 26.3 µM in test [3] and 30.4 µM in test [4].

Regarding `COc1cccc(C=C2C(=O)N(c3ccc(Cl)cc3)N(c3ccc(Cl)cc3)C2=O)c1OC`, the IC50 was found to be 14.1 µM in test [1], 29.6 µM in test [2], 11.9 µM in test [3] and 6.8 µM in test [4].

For the compound `O=C1C(=Cc2ccc(O)cc2)C(=O)N(c2ccc(Cl)cc2)N1c1ccc(Cl)cc1`, the IC50 in test [1] amounted to 20.6 µM; in test [2], 19.5 µM; in test [3] it was 23.2 µM; in test [4] it was 34.2 µM.

Take `O=C1C(=Cc2c[nH]c3ccccc23)C(=O)N(c2ccc(Cl)cc2)N1c1ccc(Cl)cc1`: the IC50 was 19.6 µM in test [1], 21.8 µM in test [2], 34.2 µM in test [3] and 23.4 µM in test [4].

As for `O=C1C(=Cc2ccc(Cl)cc2)C(=O)N(c2ccc(Cl)cc2)N1c1ccc(Cl)cc1`, the IC50 in test [1] turned out to be 30.9 µM; in test [2], 32.6 µM; in test [3], 28.5 µM; in test [4], 17.3 µM.

As for `COc1cc(C=C2C(=O)N(c3ccc(Cl)cc3)N(c3ccc(Cl)cc3)C2=O)ccc1O`, the IC50 amounted to 64.9 µM in test [1], 21.8 µM in test [2], 22.8 µM in test [3] and 7.1 µM in test [4].

Take `O=c1[nH]cc(F)c(=O)[nH]1` [FLUOROURACIL]: the 50% inhibitory concentration (IC50) in test [1] amounted to 14.2 µM; in test [2], 9.2 µM; in test [3] it was 13.5 µM; in test [4], 15.9 µM.

On to `O=C1C(=Cc2ccc(F)cc2)C(=O)N(c2ccc(Cl)cc2)N1c1ccc(Cl)cc1`, for which the IC50 in test [1] is 23.3 µM; in test [2] it was 26 µM; in test [3], 31.4 µM; in test [4] it was 35.6 µM.

`CN(C)c1ccc(C=C2C(=O)N(c3ccc(Cl)cc3)N(c3ccc(Cl)cc3)C2=O)cc1`: the IC50 in test [1] was over 128 µM; in test [2] it was 80.2 µM; in test [3], over 128 µM; in test [4] it was over 128 µM.

In the case of `COc1cc(C=C2C(=O)N(c3ccc(Cl)cc3)N(c3ccc(Cl)cc3)C2=O)cc(OC)c1OC`, the IC50 in test [1] was 29.5 µM; in test [2], 17.3 µM; in test [3] it was 16.2 µM; in test [4] it was 10.1 µM.

In the case of `O=C1C(=Cc2ccc(Cl)cc2Cl)C(=O)N(c2ccc(Cl)cc2)N1c1ccc(Cl)cc1`, the half-inhibitory concentration (IC50) in test [1] is over 128 µM; in test [2], over 128 µM; in test [3], over 128 µM; in test [4], 60.2 µM.

Consider `CCC(C)=C1C(=O)N(c2ccc(Cl)cc2)N(c2ccc(Cl)cc2)C1=O`, for which the IC50 in test [1] was determined as 49.2 µM; in test [2] it was 66.5 µM; in test [3], 41.6 µM; in test [4], 41.1 µM.

With `O=C1C(=Cc2cccc(Cl)c2)C(=O)N(c2ccc(Cl)cc2)N1c1ccc(Cl)cc1`, the IC50 worked out at 20.2 µM in test [1], 14.4 µM in test [2], 18.3 µM in test [3] and 22.6 µM in test [4].

With `O=C1C(=Cc2ccc(Br)cc2)C(=O)N(c2ccc(Cl)cc2)N1c1ccc(Cl)cc1`, the IC50 came to 16.6 µM in test [1], 16.9 µM in test [2], 30.4 µM in test [3] and 12.3 µM in test [4].
